Where a SMILES comes first, the peptide text is derived from it. [ ]: non-standard residue; d: D form. Thr(SO3H) = C[C@@H](OS(=O)(=O)O)[C@H](N)C(=O)O; sY = N[C@@H](Cc1ccc(OS(=O)(=O)O)cc1)C(=O)O; NMeF = CN[C@@H](Cc1ccccc1)C(=O)O
Target: T1, receptors in rat pancreas (3H-CCK-8-(SO3 H) binding) (Rattus norvegicus, UniProt P30551)
T1 construct: receptors in homogenized preparations of rat pancreatic cells and bovine striata; from tissue; host or cells: rat pancreas homogenate (48,000 x g pellet)
T1 sequence (P30551 1-444): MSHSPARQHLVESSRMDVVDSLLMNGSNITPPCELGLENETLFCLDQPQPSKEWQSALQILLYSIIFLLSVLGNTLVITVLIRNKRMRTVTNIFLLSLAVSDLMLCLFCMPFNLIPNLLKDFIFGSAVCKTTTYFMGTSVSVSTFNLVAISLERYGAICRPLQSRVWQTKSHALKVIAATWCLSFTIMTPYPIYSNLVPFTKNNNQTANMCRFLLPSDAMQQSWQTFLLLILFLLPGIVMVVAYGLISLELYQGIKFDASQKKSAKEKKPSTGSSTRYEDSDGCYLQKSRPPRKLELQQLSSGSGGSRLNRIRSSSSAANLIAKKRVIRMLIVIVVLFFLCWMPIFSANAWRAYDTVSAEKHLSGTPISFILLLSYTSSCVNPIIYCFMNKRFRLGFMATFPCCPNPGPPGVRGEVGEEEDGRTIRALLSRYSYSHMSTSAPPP
Assay: In vitro receptor binding assay, rat pancreas homogenate, 3H-CCK-8-(SO3H) radioligand
Conditions: 0.15 nM radioligand, 30 min, 25° C.; read-out: Rat Pancreas IC50 (inhibition of specific 3H-CCK-8-(SO3H) binding)
Procedure: This strategy was utilized to minimize central nervous system side effects by identifying peptides with peripheral receptor selectivity. […] The tissue was homogenized 2 x for approx. 15 sec. at 0° C. using a Polytron homogenizer at a setting of 6. The tissue was isolated by centrifugation at 48,000 x g for 10 min. at 0° C. […] Samples were incubated for 30 min. at 25° C. and the incubation terminated by pouring the mixture onto a pre-wet Whatman GF/B filter on a Sandbeck Vacuum Filtration Manifold. The incubation tubes were washed with 2×3 ml of ice-cold HEPES Buffer #2 and the wash filtered through the GF/B filter. The filter was air dried for 10 min. and then placed in a scintillation vial with 12 ml of Beckman HP/b Ready-Solv scintillation cocktail. The vials were shaken for 2 hours and then counted using a Beckman Model 7800 liquid scintillation spectrometer.

CSCC[C@H](NC(=O)[C@H](Cc1ccc(OS(=O)(=O)O)cc1)NC(C)=O)C(=O)NCC(=O)N[C@@H](Cc1c[nH]c2ccccc12)C(=O)N[C@@H](CCSC)C(=O)N[C@H](C(=O)N(C)[C@@H](Cc1ccccc1)C(N)=O)[C@@H](C)OS(=O)(=O)O [Example 2, Ac-Tyr(SO3 H)-Met-Gly-Trp-Met-Thr(SO3 H)-N-methyl-Phe-NH2] (Ac-[sY]MGWM[Thr(SO3H)][NMeF]-NH2)
IC50: 2.2 nM
